Measurements reported in patent publication US6482934B1, “Methods and compositions for detecting and treating kidney diseases associated with adhesion of crystals to kidney cells” (ARCH Development Corp., priority 1995, dated 2002).
“Also recorded” adds a separate entry of the source. Structures can show the parent of a compound that is named as a salt. Where two headings read alike, the source gives them in different places.

What was measured:
BSC-1 cells [1] = assay: [14C]COM crystal adhesion to BSC-1 cell monolayers; type: cell-based, African green monkey; settings: for IC50 / Half-maximal concentration: concentration that inhibited crystal adhesion by 50%; for IC50 / Kd / Half-maximal concentration / Langmuir affinity constant (dissociation constant): N.I. = noninhibitory; for IC50: read-out: Half-maximal concentration; for Kd / Langmuir affinity constant (dissociation constant): slope of Langmuir isotherm plot of crystal adhesion; for Kd: read-out: Langmuir affinity constant (dissociation constant); for effect on adhesion of COM crystals: concentrations as high as 1 μM
Description: (§1) Renal epithelial cells of the nontransformed African green monkey line (BSC-1) were used. Cells were grown in Dulbecco-Vogt modified Eagle's medium containing 25 mM glucose (DMEM), 1.6 μM biotin and 1% calf serum at 38° C. in a CO2 incubator. Under these conditions, BSC-1 cells achieved confluence at 10^6 cells per 60-mm plastic dish (Nunc). High-density, quiescent cultures were prepared by plating 2×10^6 cells in a 60-mm dish. The spent medium was changed after 3 days so that there were 3-4×10^6 cells/dish 6 days later. Medium was then aspirated and replaced with fresh medium containing […] and 0.01% calf serum; 3 days later the quiescent cultures were used for study.
(§2) Crystals are sterilized by heating to 180° C. overnight.
(§3) High-density, quiescent cultures of BSC-1 cells, MDCK cells, or Balb/c3T3 fibroblasts are prepared. At the time of assay, the medium is aspirated and replaced with 5 ml of phosphate-buffered saline (PBS) (10 mM Na2PO4, 155 mM NaCl, 5.4 mM KCl, pH 7.4 at 37° C.) to which the compound under investigation is added. […] The culture dishes are gently agitated for 5 seconds to uniformly distribute crystals which subsequently settle to the surface of the cell monolayer under the force of gravity. After two minutes buffer is aspirated and the cells are then washed three times with PBS (5 ml). The cell monolayer is then scraped directly into a scintillation vial containing 6 N HCl (0.5 ml) to which 4.5 ml of Ecoscint (National Diagnostics, E. Palmetto, Fla.) is added, and the amount of radioactivity is measured as described by Riese, et al. (1992).

BSC-1 cells [2] = assay: Adhesion of agent-coated COM crystals to BSC-1 cells; type: cell-based, African green monkey; settings: compared with uncoated control crystals
Description: Each tube is then centrifuged at 3000 g for 5 minutes. The supernatant is gently aspirated and replaced with a supersaturated calcium oxalate solution to resuspend the coated crystals. To assure removal of any nonabsorbed compound, crystals are resuspended and washed three times in succession. Cell-associated radioactivity is determined 2 minutes after addition of these coated crystals as described herein.

BSC-1 cells [3] = assay: Crystal endocytosis by BSC-1 cells; type: cell-based, African green monkey; settings: for combined stimulatory effects on COM crystal endocytosis: ADP 200 μM and EGF 5 ng/ml; for combined inhibitory effects on COM crystal endocytosis: RGDS 10 μg/ml, heparin 5 μg/ml and TGF-β2 2 ng/ml
Description: as §1
(§4) At specified times after addition of crystals to high-density, quiescent cultures the medium was aspirated and a solution of crystalline trypsin was used to detach cells which were then inspected under a polarizing microscope. One hundred cells from each culture were counted, and each cell was scored for the presence of one or more internalized crystal(s).

Balb/c3T3 fibroblasts [4] = assay: Crystal endocytosis by Balb/c3T3 fibroblasts; type: cell-based; settings: COM crystals 200 μg/ml; for effect on crystal uptake by fibroblasts: 10 μg/ml
Description: (§5) Balb/c3T3 fibroblasts were grown in DMEM containing 10% calf serum. To prepare high-density, quiescent cultures, 7×10^5 cells were plated per 60-mm dish. Two days later the medium was aspirated and replaced with fresh medium containing 1% calf serum and 1.6 μM biotin; the cells were used one day later when a density of […] was reached.
as §4

MDCK cells [5] = assay: Crystal endocytosis by MDCK cells; type: cell-based, canine; settings: COM crystals 200 μg/ml; for inhibition of COM crystal endocytosis by MDCK cells: 10 μg/ml
Description: (§6) Madin-Darby Canine Kidney (MDCK) cells were grown in DMEM containing 2% calf serum and 1.6 μM biotin as described previously. To prepare high-density, quiescent cultures 2×10^6 cells/60-mm dish were plated in DMEM containing 2% calf serum and 1.6 μM biotin. The next day medium was aspirated and replaced with fresh medium containing 0.5% calf serum and biotin. One day later the cultures were used for study.
as §4

BSC-1 cells [6] = assay: Endocytosis of agent-coated COM crystals by BSC-1 cells; type: cell-based, African green monkey; settings: THP 5×10^−8 M; 6×10^−10M in the medium
Description: as §4

MDCK cells [7] = assay: [14C]COM crystal adhesion to MDCK cells; type: cell-based, canine; settings: 0.55 μM heparin
Description: as §6, §2, §3

Balb/c3T3 fibroblasts [8] = assay: [14C]COM crystal adhesion to 3T3 fibroblasts; type: cell-based; settings: 0.55 μM heparin; COM crystals 200 μg/ml
Description: as §5, §2, §3

Compound | concentration above which COM crystal adhesion was inhibited (BSC-1 cells [1]) | effect on adhesion of COM crystals to BSC-1 cells (in words) (BSC-1 cells [1]) | Kd (BSC-1 cells [1]) [nM] | IC50 (BSC-1 cells [1]) [nM] | adhesion of crystals previously coated with the molecule (BSC-1 cells [2]) | other results
O=C(O)CC(O)(CC(=O)O)C(=O)O [Sodium citrate] | above 250 μM | inhibited binding of COM crystals | 431000 | – | – | IC50 (BSC-1 cells [1]; Chlorocebus sabaeus, BSC-1): 200000 nM
Pentosan polysulfate | above 0.33 μM | – | 131 | 20 | – | –
Polyglutamic acid | > 0.02 µM | blocked adherence of COM crystals | 26 | 10 | less than control | –
CC(=O)NC1C(O)OC(COS(=O)(=O)O)C(O)C1OC1OC(C(=O)O)=CC(O)C1O (centres unmarked) [6-S] | – | without effect | – | – | – | –
albumin | – | – | – | – | to the same extent as did uncoated crystals | –
Polyaspartic acid | above 0.007 μM | blocked adherence of COM crystals | 23 | 7 | less than control | –
protamine sulfate | – | – | – | – | – | effect on heparin inhibition of crystal binding, added after heparin (BSC-1 cells [1]; after 30 minutes exposure to heparin): completely reversed inhibition of crystal binding; effect on heparin inhibition of crystal adhesion, added together with heparin (BSC-1 cells [1]; protamine sulfate 100 μg/ml with heparin 10 μg/ml): abolished the polyanion's inhibitory effect; effect on crystal adhesion, alone (BSC-1 cells [1]; protamine sulfate alone): inert
Hyaluronic acid | above 0.01 μM | prevented binding of COM crystals | 13 | 20 | – | –
Uropontin: urinary glycoprotein, inhibitor of COM crystal growth | – | inhibited binding of COM crystals; also recorded: blocking adhesion of COM crystals to BSC-1 cells | 43 | 20 | less than control | block of COM crystal binding (BSC-1 cells [1]; uropontin 0.1 μM): 73%
CC(=O)NC1C(O)OC(CO)C(O)C1OC1OC(C(=O)O)=CC(O)C1O (centres unmarked) [0-S] | – | without effect | – | – | – | –
EGF: epidermal growth factor, mitogen | – | – | – | – | – | combined stimulatory effects on COM crystal endocytosis (BSC-1 cells [3]): not additive; increase in COM crystal endocytosis compared to control (BSC-1 cells [3]; EGF 10 ng/ml): 55%
arginine-glycine-aspartic acid-serine [RGDS] | – | – | – | – | – | inhibition of COM crystal endocytosis compared to control (BSC-1 cells [3]; RGDS 5 μg/ml): 30%; combined inhibitory effects on COM crystal endocytosis (BSC-1 cells [3]): not additive; maximal inhibition of COM crystal endocytosis (BSC-1 cells [3]; RGDS at higher concentrations (above 5 μg/ml)): 41%; effect on crystal uptake by fibroblasts (Balb/c3T3 fibroblasts [4]): did not alter crystal uptake by fibroblasts; inhibition of COM crystal endocytosis by MDCK cells (MDCK cells [5]): 48%
THP: urinary Tamm-Horsfall glycoprotein, most abundant protein in human urine | – | no effect | – | – | – | decrease in COM crystal endocytosis (BSC-1 cells [3]; THP 5×10−8 M): 34%; decrease in COM crystal endocytosis (BSC-1 cells [3]; THP 10^−8 M): 21%; Half-maximal concentration (BSC-1 cells [1]): N.I.; effect on adhesion of COM crystals to BSC-1 cells (in words) (BSC-1 cells [1]; listed as Tamm-Horsfall glycoprotein): did not; Langmuir affinity constant (dissociation constant) (BSC-1 cells [1]): N.I.; endocytosis of crystals incubated with THP and added directly without centrifuging (BSC-1 cells [6]): to the same extent as uncoated crystals
Fibronectin | – | – | – | – | – | maximal inhibition of COM crystal endocytosis (BSC-1 cells [3]; fibronectin 2.5 μg/ml): 33%; effect on crystal uptake by fibroblasts (Balb/c3T3 fibroblasts [4]): did not alter crystal uptake by fibroblasts; inhibition of COM crystal endocytosis by MDCK cells (MDCK cells [5]): 59%
Dextran sulfate | > 0.01 µM | – | 13 | 10 | less than control | –
CC(=O)NC1C(O)OC(CO)C(OS(=O)(=O)O)C1OC1OC(C(=O)O)=CC(O)C1O (centres unmarked) [4-S] | – | without effect | – | – | – | –
Chondroitin sulfate C | – | – | – | – | – | Half-maximal concentration (BSC-1 cells [1]): N.I.; effect on COM crystal adherence (BSC-1 cells [1]; concentrations as high as 37 μM): no effect; Langmuir affinity constant (dissociation constant) (BSC-1 cells [1]): N.I.
O=C(O)CC(CC(=O)O)(OP(=O)(O)O)C(=O)O [Phosphocitrate] | above 50 μM | – | 43800 | 50000 | – | –
Polylysine | – | – | – | 2500 | to the same extent as did uncoated crystals | effect on adhesion of COM crystals (BSC-1 cells [1]): no effect
heparin | – | blocked | 43 | 15 | less than control | combined inhibitory effects on COM crystal endocytosis (BSC-1 cells [3]): not additive; decrease in COM crystal endocytosis compared to control (BSC-1 cells [3]; heparin 2 μg/ml): 36%; effect on COM crystal uptake at higher concentration (BSC-1 cells [3]; heparin as high as 100 μg/ml): did not inhibit uptake further; adhesion of crystals after heparin added later than crystals (BSC-1 cells [1]; heparin 10 μg/ml (0.55 μM) added 1 to 30 minutes after crystals, measured after 60 minutes): appeared to stop immediately; displacement of crystals already bound to cells (BSC-1 cells [1]; heparin 10 μg/ml present for up to an additional 55 minutes): did not appear to displace crystals already bound to cells; decrease in adherence of COM crystals (BSC-1 cells [1]; heparin 18,000 Da at 0.006 μM): 33%; Maximal inhibition of COM crystal adhesion (BSC-1 cells [1]; heparin 18,000 Da at concentrations above 0.028 μM): 95%; maximal inhibition of adhesion of COM crystals to MDCK cells (MDCK cells [7]): 89%; decrease in adhesion of COM crystals to 3T3 fibroblasts (Balb/c3T3 fibroblasts [8]): 85%; inhibition of COM crystal endocytosis in fibroblasts (Balb/c3T3 fibroblasts [4]; heparin): 24%; inhibition of COM crystal endocytosis in MDCK cells (MDCK cells [5]; heparin): 60%
Polyarginine | – | – | – | – | to the same extent as did uncoated crystals | Half-maximal concentration (BSC-1 cells [1]): N.I.; effect on adhesion of COM crystals (BSC-1 cells [1]): no effect; Langmuir affinity constant (dissociation constant) (BSC-1 cells [1]): N.I.
Chondroitin sulfate B | > 0.4 µM | prevented binding of COM crystals | 206 | 100 | less than control | –
Chondroitin sulfate A | above 1.4 μM | prevented binding of COM crystals | 38 | 600 | – | –
Nc1ncnc2c1ncn2[C@@H]1O[C@H](COP(=O)(O)OP(=O)(O)O)[C@@H](O)[C@H]1O [ADP, adenosine diphosphate] | – | – | – | – | – | increase in COM crystal uptake compared to control (BSC-1 cells [3]; ADP 2 μM): 52%; combined stimulatory effects on COM crystal endocytosis (BSC-1 cells [3]): not additive
Polyvinyl sulfate | > 0.1 µM | – | 49 | 20 | – | –
Heparan sulfate | above 0.8 μM | prevented binding of COM crystals | 881 | 100 | – | effect on endocytosis of COM crystals (BSC-1 cells [3]; heparan sulfate 2-25 μg/ml): did not alter endocytosis of COM crystals
